# Results taken from patent US20230121721A1, “MONOACYLGLYCEROL LIPASE INHIBITORS” (STICHTING HET NEDERLANDS KANKER INSTITUUT - ANTONI VAN …, priority 2020, published 2023).
# Biological target: T1, hMAGL (MAGL-overexpressing membrane preparations from transiently transfected HEK293T cells) (Homo sapiens, UniProt Q99685)
# T1 construct: expressed in transfected cells; host or cells: HEK293T (transient transfection), membrane preparations
# T1 sequence (Q99685 1-303): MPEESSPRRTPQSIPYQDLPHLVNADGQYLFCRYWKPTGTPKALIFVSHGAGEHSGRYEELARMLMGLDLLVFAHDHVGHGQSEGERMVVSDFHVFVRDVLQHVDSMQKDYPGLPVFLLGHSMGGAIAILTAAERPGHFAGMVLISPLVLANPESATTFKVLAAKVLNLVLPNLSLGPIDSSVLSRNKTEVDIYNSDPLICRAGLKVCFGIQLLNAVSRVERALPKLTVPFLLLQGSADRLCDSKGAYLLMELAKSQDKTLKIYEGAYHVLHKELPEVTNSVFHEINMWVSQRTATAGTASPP
# Experiment: MAGL activity assay (2-AG hydrolysis, glycerol coupled to Amplifu Red fluorescence)
# Assay type: biochemical
# Settings: hMAGL-overexpressing HEK293T membranes, 25 μM 2-AG substrate, 20 min. inhibitor incubation
# Text: The MAGL activity assay is based on the production of glycerol from 2-arachidonoylglycerol (2-AG) hydrolysis by MAGL-overexpressing membrane preparations from transiently transfected HEK293T cells, as previously reported in van der Wel T et al., “A natural substrate-based fluorescence assay for inhibitor screening on diacylglycerol lipase”, J Lipid Res., 2015, 56(4), 927-35. The produced glycerol is coupled to the oxidation of commercially available Amplifu™ Red (Sigma-Aldrich Chemie N.V., Zwijndrecht, Netherlands) via a multi-enzyme cascade, resulting in a fluorescent signal from the dye resorufin.
# Standard assays were performed in HEMNB buffer (50 mM HEPES pH 7.4, 1 mM EDTA, 5 mM MgCl2, 100 mM NaCl, 0.5% (w/v) BSA) in black, flat bottom 96-wells plates. Final protein concentration of membrane preparations from overexpressing hMAGL HEK293T cells was 1.5 μg/mL (0.3 μg per well). Inhibitors were added from 40× concentrated DMSO stocks. […] Final assay concentrations: 0.2 U/mL GK, GPO and HRP, 0.125 mM ATP, 10 μM Amplifu™ Red, 25 μM 2-AG, 5% DMSO, 0.5% ACN in a total volume of 200 μL.
# For IC50 determination, the MAGL-overexpressing membranes were incubated with different inhibitor concentrations. Slopes of corrected fluorescence in time were determined in the linear interval of t=10 to t=35 min and then scaled to the corrected positive control of hMAGL-overexpressing membranes treated with vehicle (DMSO) as a 100% activity reference point. The data was exported to GraphPad Prism 5.0 and analysed in a non-linear dose-response analysis with variable slope.
row,Structure (SMILES),IC50
1,"C[C@H]1[C@H](C)N(c2cccc(Cl)c2)CCN1C(=O)c1ccc([S+]([O-])CC(=O)c2ccnnc2)c(Cl)c1 (mixture of isomers) [Example 96, (±) 2-((2-Chloro-4-(4-(3-chlorophenyl)-trans-2,3-dimethylpiperazine-1-carbonyl)phenyl)sulfinyl)-1-(pyridazin-4-yl)ethan-1-one]",708 nM
2,"CCOC(=O)CSc1ccc(C(=O)N2CCN(c3cccc(Cl)c3)[C@H](C)[C@H]2C)cc1Cl (racemic) [Example 52, (±) Ethyl 2-((2-chloro-4-(4-(3-chlorophenyl)-trans-2,3-dimethylpiperazine-1-carbonyl)phenyl)thio)acetate]",> 10000 nM
3,"C[C@H]1[C@H](C)N(c2cccc(Cl)c2)CCN1C(=O)c1ccc([S+]([O-])CC(=O)c2ccccc2F)c(Cl)c1 (mixture of isomers) [Example 95, (±) 2-((2-Chloro-4-(4-(3-chlorophenyl)-trans-2,3-dimethylpiperazine-1-carbonyl)phenyl)sulfinyl)-1-(2-fluorophenyl)ethan-1-one]",1620 nM
4,"CCOC(=O)CS(=O)(=O)c1ccc(C(=O)N2CCN(c3cccc(C)c3)[C@@H](C)C2)cc1[N+](=O)[O-] [Example 6, Ethyl (S)-2-((4-(3-methyl-4-(m-tolyl)piperazine-1-carbonyl)-2-nitrophenyl)sulfonyl)acetate]",> 10000 nM
5,"CCOC(=O)C[S+]([O-])c1ccc(C(=O)N2CCN(c3cccc(C)c3)[C@@H](C)C2)cc1 (stereo partly drawn) [Example 7, Ethyl 2-((4-((S)-3-methyl-4-(m-tolyl)piperazine-1-carbonyl)phenyl)sulfinyl)acetate]",5620 nM
6,"CCOC(=O)C[S+]([O-])c1ccc(C(=O)N2CCN(c3cccc(Cl)n3)[C@@H](C)[C@@H]2C)cc1Cl (mixture of isomers) [Example 70, (±) Ethyl 2-((2-chloro-4-(-4-(6-chloropyridin-2-yl)-trans-2,3-dimethylpiperazine-1-carbonyl)phenyl)sulfinyl)acetate]",9.12 nM
7,"COCCOC(=O)C[S+]([O-])c1ccc(C(=O)N2CCN(c3cccc(Cl)c3)[C@@H](C)[C@@H]2C)cc1Cl (mixture of isomers) [Example 65, (±) 2-Methoxyethyl 2-((2-chloro-4-(4-(3-chlorophenyl)-trans-2,3-dimethylpiperazine-1-carbonyl)phenyl)sulfinyl)acetate]",9.12 nM
8,"CCC(F)(F)C(=O)C[S+]([O-])c1ccc(C(=O)N2CCN(c3cccc(Cl)n3)[C@@H](C)[C@@H]2C)cc1Cl (mixture of isomers) [Example 82, (±) 1-((2-Chloro-4-(4-(6-chloropyridin-2-yl)-trans-2,3-dimethylpiperazine-1-carbonyl)phenyl)sulfinyl)-3,3-difluoropentan-2-one]",0.123 nM
9,"CCOC(=O)C[S+]([O-])c1ccc(C(=O)N2CCN(c3cccc(C(F)(F)F)c3)[C@@H](C)C2)cc1[N+](=O)[O-] (stereo partly drawn) [Example 31, Ethyl 2-((4-((S)-3-methyl-4-(3-(trifluoromethyl)phenyl)piperazine-1-carbonyl)-2-nitrophenyl)sulfinyl)acetate]",200 nM
10,"C[C@H]1[C@H](C)N(c2cccc(Cl)c2)CCN1C(=O)c1ccc([S+]([O-])CC(=O)c2cccc(F)c2)c(Cl)c1 (mixture of isomers) [Example 87, (±) 2-((2-Chloro-4-(4-(3-chlorophenyl)-trans-2,3-dimethylpiperazine-1-carbonyl)phenyl)sulfinyl)-1-(3-fluorophenyl)ethan-1-one]",> 10000 nM
11,"CCOC(=O)C[S+]([O-])c1ccc(C(=O)N2CCN(c3cccc(Cl)c3)CC2C)cc1F (stereo not drawn) [Example 44, Ethyl 2-((4-(4-(3-chlorophenyl)-2-methylpiperazine-1-carbonyl)-2-fluorophenyl)sulfinyl)acetate]",27.5 nM
12,"C[C@H]1[C@H](C)N(c2cccc(Cl)c2)CCN1C(=O)c1ccc([S+]([O-])CC(=O)c2cccc(F)c2F)c(Cl)c1 (mixture of isomers) [Example 93, (±) 2-((2-Chloro-4-(4-(3-chlorophenyl)-trans-2,3-dimethylpiperazine-1-carbonyl)phenyl)sulfinyl)-1-(2,3-difluorophenyl)ethan-1-one]",575 nM
13,"C[C@H]1[C@H](C)N(c2cccc(Cl)c2)CCN1C(=O)c1ccc([S+]([O-])CC(=O)c2ccc(F)cc2F)c(Cl)c1 (mixture of isomers) [Example 97, (±) 2-((2-Chloro-4-(4-(3-chlorophenyl)-trans-2,3-dimethylpiperazine-1-carbonyl)phenyl)sulfinyl)-1-(2,4-difluorophenyl)ethan-1-one]",234 nM
14,"C[C@H]1[C@H](C)N(c2cccc(Cl)c2)CCN1C(=O)c1ccc([S+]([O-])CC(=O)c2cccnc2)c(Cl)c1 (mixture of isomers) [Example 85, (±) 2-((2-Chloro-4-(4-(3-chlorophenyl)-trans-2,3-dimethylpiperazine-1-carbonyl)phenyl)sulfinyl)-1-(pyridin-3-yl)ethan-1-one]",9770 nM
15,"C[C@H]1[C@H](C)N(c2cccc(Cl)c2)CCN1C(=O)c1ccc([S+]([O-])CC(=O)c2cnccn2)c(Cl)c1 (mixture of isomers) [Example 101, (±) 2-((2-Chloro-4-(4-(3-chlorophenyl)-trans-2,3-dimethylpiperazine-1-carbonyl)phenyl)sulfinyl)-1-(pyrazin-2-yl)ethan-1-one]",1100 nM
16,"C[C@H]1[C@H](C)N(c2cccc(Cl)c2)CCN1C(=O)c1ccc([S+]([O-])CC(=O)C(F)(F)c2ccccc2)c(Cl)c1 (mixture of isomers) [Example 80, (±) 3-((2-Chloro-4-(4-(3-chlorophenyl)-trans-2,3-dimethylpiperazine-1-carbonyl)phenyl)sulfinyl)-1,1-difluoro-1-phenylpropan-2-one]",87.1 nM
17,"CCC(F)(F)C(=O)C[S+]([O-])c1ccc(C(=O)N2CCN(c3cc(Cl)ccn3)[C@@H](C)[C@@H]2C)cc1Cl (mixture of isomers) [Example 84, (±) 1-((2-Chloro-4-(4-(4-chloropyridin-2-yl)-trans-2,3-dimethylpiperazine-1-carbonyl)phenyl)sulfinyl)-3,3-difluoropentan-2-one]",2.82 nM
18,"CCOC(=O)C[S+]([O-])c1ccc(C(=O)N2CCN(c3cccc(Cl)c3)CC2(C)C)cc1F (stereo not drawn) [Example 48, Ethyl 2-((4-(4-(3-chlorophenyl)-2,2-dimethylpiperazine-1-carbonyl)-2-fluorophenyl)sulfinyl)acetate]",57.5 nM
19,"C[C@H]1[C@H](C)N(c2cccc(Cl)c2)CCN1C(=O)c1ccc([S+]([O-])CC(=O)C(F)(F)F)c(Cl)c1 (mixture of isomers) [Example 73, (±) 3-((2-Chloro-4-(4-(3-chlorophenyl)-trans-2,3-dimethylpiperazine-1-carbonyl)phenyl)sulfinyl)-1,1,1-trifluoropropan-2-one]",7.41 nM
20,"C[C@H]1[C@H](C)N(c2cccc(Cl)c2)CCN1C(=O)c1ccc([S+]([O-])CC(=O)c2cc(F)cc(F)c2)c(Cl)c1 (mixture of isomers) [Example 89, (±) 2-((2-Chloro-4-(4-(3-chlorophenyl)-trans-2,3-dimethylpiperazine-1-carbonyl)phenyl)sulfinyl)-1-(3,5-difluorophenyl)ethan-1-one]",2090 nM
21,"CCOC(=O)C[S+]([O-])c1ccc(C(=O)N2CCN(c3cccc(Cl)c3)[C@H](C)[C@H]2C)cc1C(F)(F)F (mixture of isomers) [Example 107, (±) Ethyl 2-((4-(4-(3-chlorophenyl)-trans-2,3-dimethylpiperazine-1-carbonyl)-2-(trifluoromethyl)phenyl)sulfinyl)acetate]",14.8 nM
22,"C[C@H]1[C@H](C)N(c2cccc(Cl)c2)CCN1C(=O)c1ccc([S+]([O-])CC(=O)C(F)F)c(Cl)c1 (mixture of isomers) [Example 77, (±) 3-((2-Chloro-4-(4-(3-chlorophenyl)-trans-2,3-dimethylpiperazine-1-carbonyl)phenyl)sulfinyl)-1,1-difluoropropan-2-one]",2.34 nM
23,"C[C@H]1[C@H](C)N(c2cccc(Cl)c2)CCN1C(=O)c1ccc([S+]([O-])CC(=O)c2nccs2)c(Cl)c1 (mixture of isomers) [Example 75, (±) 2-((2-Chloro-4-(4-(3-chlorophenyl)-trans-2,3-dimethylpiperazine-1-carbonyl)phenyl)sulfinyl)-1-(thiazol-2-yl)ethan-1-one]",234 nM
24,"CCOC(=O)C[S+]([O-])c1ccc(C(=O)N2CCN(c3ccnc(Cl)c3)[C@@H](C)[C@@H]2C)cc1Cl (mixture of isomers) [Example 69, (±) Ethyl 2-((2-chloro-4-(-4-(2-chloropyridin-4-yl)-trans-2,3-dimethylpiperazine-1-carbonyl)phenyl)sulfinyl) acetate]",87.1 nM
